Test results from patent EP0942741B1, “LECTIN COMPOSITIONS AND USES THEREOF” (Alizyme Therapeutics Limited, priority 1996, dated 1997).

Columns and labels:
[1] = Protection of rats from 5-FU chemotherapy by oral PHA (Example 7); format: in vivo
Procedure: (§1) 300mg of 5-fluorouracil was stirred in 14ml of distilled water. 1M NaOH was added slowly until the 5-FU had dissolved. The solution was made up to a final volume of 20 ml. The final pH of the solution was 8.3. A dose of 150 mg/kg body weight was administered to the animal by intraperitoneal injection. Immediately after the injection, the rats were offered 15 g of the control diet and food was available ad-libitum for the remainder of the experiment.
Four groups, each consisting of 5 rats were maintained on a precise dietary regime for a period of 7 days (Table 11).
Rats (approx […]) pre-dosed with PHA were offered 10 g of the control diet (Table 1) containing 10% lactalbumin. Each animal was given the equivalent of 20 mg PHA in 0.9% saline by gavage. Rats were offered control diet in two feeds at 1000 & 1700 hours. The amount of food given was strictly paired to the amount of diet eaten by the PHA pre-dosed animals. If the animals were immediately post-dosed with PHA, the lectin was administered two hours post 5-FU injection by gavage. Animals neither pre- or post dosed with PHA were administered with 1 ml 0.9% saline by gavage. After 3 days, animals in three of the groups were administered a dose of 150 mg/kg body weight 5-FU. Body weight of each animal was recorded daily and the average body weight calculated.
At the end of the experiment, the animals were sacrificed and then dissected. The dry weights of the major organs were recorded for each animal and the average weights calcurated.
After 7 days, blood was collected from the animals and both the key molecular and cellular components were analysed.

[2] = Dose range of PHA pre-dosing against 5-FU damage of the gastrointestinal tract (Example 8); format: in vivo, rats; settings: pair fed, 150 mg/kg/BW 5-FU, day 9
Procedure: as §1
3 groups of rats (5 rats per group) were fed on the standard diet (Table 1) and gavaged daily with either 200, 100 & 50 mg/kg/day PHA for 3 days. The food intake for each rat was recorded daily. A second set of 3 control groups of rats (5 rats per group) were fed on the standard diet and gavaged daily with 1 ml saline for 3 days. Each animal of the control group was pair fed to an animal in the PHA dosed groups. On the morning of the 4th day, each animal was injected with 150 mg/kg bodyweight 5-FU and then fed the standard diet for 6 days. 2 rats were fed on the standard diet ad libitum for 9 days. On the 9th day, the rats were killed and the animals dissected. After freezing in liquid nitrogen, the wet tissue weights were recorded.

[3] = Treatment 2: LA 3d, inject 5-FU (150 mg/kg i.p.), LA 4d, after 7 days
[4] = Treatment 2: LA 3d, inject 5-FU (150 mg/kg i.p.), LA 4d, blood after 7 days
[5] = Paired control 50 mg/kg/day: saline gavage
[6] = Paired control 100 mg/kg/day: saline gavage
[7] = Paired control 200 mg/kg/day: saline gavage

Question: With `O=c1[nH]cc(F)c(=O)[nH]1` [5-FU, 5-fluorouracil] as the compound, how does the “Caecum average dry weight” value [1, 3] read?
Answer: 99 ± 11 mg

Question: What about the “Colon average dry weight” value [1, 3] of the same compound?
Answer: 130 ± 11 mg

Question: And the “Ileum average dry weight” value [1, 3]?
Answer: 94 ± 11 mg

Question: And the “Jejunum average dry weight” value [1, 3]?
Answer: 90 ± 8 mg

Question: What about the “Small intestine average dry weight” value [1, 3] of the same compound?
Answer: 509 ± 55 mg

Question: What about the “Stomach average dry weight” value [1, 3] of the same compound?
Answer: 140 ± 7 mg

Question: And the HGB [1, 4]?
Answer: 12.7 g/100ml

Question: What about the MCH [1, 4] of the same compound?
Answer: 17.3 pg

Question: What about the MCHC [1, 4] of the same compound?
Answer: 34.3 g/100ml

Question: And the MCV [1, 4]?
Answer: 50.4 µm^3

Question: What about the PLT [1, 4] of the same compound?
Answer: 274x10^3 no/mm^3

Question: What about the WBC [1, 4] of the same compound?
Answer: 3x10^3 no/mm^3

Question: What about the fresh body weight ([1]; Treatment 2: LA 3d, inject 5-FU (150 mg/kg i.p.), LA 4d, column 1 of 8 (day not given)) of the same compound?
Answer: 102.5 g

Question: What about the fresh body weight ([1]; Treatment 2: LA 3d, inject 5-FU (150 mg/kg i.p.), LA 4d, column 2 of 8 (day not given)) of the same compound?
Answer: 99.9 g

Question: And the fresh body weight ([1]; Treatment 2: LA 3d, inject 5-FU (150 mg/kg i.p.), LA 4d, column 3 of 8 (day not given))?
Answer: 98.8 g

Question: And the fresh body weight ([1]; Treatment 2: LA 3d, inject 5-FU (150 mg/kg i.p.), LA 4d, column 4 of 8 (day not given))?
Answer: 101.9 g

Question: What about the fresh body weight ([1]; Treatment 2: LA 3d, inject 5-FU (150 mg/kg i.p.), LA 4d, column 5 of 8 (day not given)) of the same compound?
Answer: 108 g

Question: And the fresh body weight ([1]; Treatment 2: LA 3d, inject 5-FU (150 mg/kg i.p.), LA 4d, column 6 of 8 (day not given))?
Answer: 110.2 g

Question: And the fresh body weight ([1]; Treatment 2: LA 3d, inject 5-FU (150 mg/kg i.p.), LA 4d, column 7 of 8 (day not given))?
Answer: 107.9 g

Question: What about the fresh body weight ([1]; Treatment 2: LA 3d, inject 5-FU (150 mg/kg i.p.), LA 4d, column 8 of 8 (day not given)) of the same compound?
Answer: 106.2 g

Question: What about the daily food intake ([1]; Treatment 2: LA 3d, inject 5-FU (150 mg/kg i.p.), LA 4d, day 1 (pair fed, before injection)) of the same compound?
Answer: 4.8 g

Question: What about the daily food intake ([1]; Treatment 2: LA 3d, inject 5-FU (150 mg/kg i.p.), LA 4d, day 2 (pair fed, before injection)) of the same compound?
Answer: 6.22 g

Question: What about the daily food intake ([1]; Treatment 2: LA 3d, inject 5-FU (150 mg/kg i.p.), LA 4d, day 3 (pair fed, before injection)) of the same compound?
Answer: 9.22 g

Question: What about the daily food intake ([1]; Treatment 2: LA 3d, inject 5-FU (150 mg/kg i.p.), LA 4d, day 4) of the same compound?
Answer: 11.3 g

Question: What about the daily food intake ([1]; Treatment 2: LA 3d, inject 5-FU (150 mg/kg i.p.), LA 4d, day 5) of the same compound?
Answer: 10.4 g

Question: What about the daily food intake ([1]; Treatment 2: LA 3d, inject 5-FU (150 mg/kg i.p.), LA 4d, day 6) of the same compound?
Answer: 6.8 g

Question: And the daily food intake ([1]; Treatment 2: LA 3d, inject 5-FU (150 mg/kg i.p.), LA 4d, day 7)?
Answer: 5.9 g

Question: What about the “reduction of small intestine dry weight” value ([1]; only lactalbumin in the diet, 5-FU 150 mg/kg) of the same compound?
Answer: ~50%

Question: And the Heum wet weight [2, 5]?
Answer: 722 mg

Question: And the Jejunum wet weight [2, 5]?
Answer: 761 mg

Question: What about the Heum wet weight [2, 6] of the same compound?
Answer: 747 mg

Question: What about the Jejunum wet weight [2, 6] of the same compound?
Answer: 783 mg

Question: What about the Heum wet weight [2, 7] of the same compound?
Answer: 753 mg

Question: And the Jejunum wet weight [2, 7]?
Answer: 848 mg
